Measured values as given in patent US6803232B1, “NPY-Y7 receptor gene” (The Garvan Institute of Medical Research, priority 1998, dated 2004).

The substances below were run on human NPY-Y7 receptors (assay: Competitive displacement of [125I]PYY on membranes of COSm6 cells transiently expressing human NPY-Y7 receptors). Conditions: COS-6 or HEX (293) cells transiently expressing recombinant Y7 receptor protein; FIG. 2.
Type: binding
Protocol: The results were obtained through competitive displacement of [^125I]PYY on membranes of COSm6 cells transiently expressing human NPY-Y7 receptors. Membranes were incubated with [^125I]PYY (50 pM) and increasing concentrations of peptide competitors. Data are representative of a single experiment with each point measured in triplicate.
These experiments were conducted using COS-6 or HEX (293) cells transiently expressing recombinant Y7 receptor protein.
pcDNA3.1-hy7 cDNA was transiently transfected into the COSm6 cell line using FUGENE and […] of DNA/106 cells. The COSm6 cells were grown in Dulbecco's modified Eagles medium supplemented with 2 mM glutamine and 10% fetal calf serum, in 5% CO2 at 37° C. Membranes were harvested with COSm6 cells 72hr post-transfection. Adherent cells were washed twice in ice-cold phosphate buffered saline and lysed using a glass homogeniser in ice-cold hypotonic buffer (50 mM Tris-HCl, pH 7.4, 0.1% bacitracin). Membranes were pelleted by high speed centrifugation (30,000×g, 15 min 4° C.), homogeniser again in ice-cold hypotonic buffer and collected again by high speed centrifugation (30,000×g, 15 min, 4° C.). […] Samples were incubated at room temperature for 2hr. Incubations were terminated by centrifugation (4 min) and pellets collected. Radioactivity was measured for 1 min in a g counter.

**Q.** With “PYY: peptide YY, 36 amino acids, member of the pancreatic polypeptide family” as the substance, how does the “affinity of the protein encoded by the hy7 cDNA (radio-ligand binding)” value read?
**A.** The value was “highest affinity”.

Same assay, conditions: inhibition of [125I]PYY (50 pM) binding, COSm6 membranes, single experiment, triplicate points

**Q.** For “PYY: peptide YY, 36 amino acids, member of the pancreatic polypeptide family”, which “rank of potency for the Y7 receptor” value is on record?
**A.** The value was “PYY>NPY>[2-36]PYY>[3-36]NPY>[13-36]NPY>>(Leu31, Pro34)NPY>PP”.

**Q.** Which “rank of potency for the Y7 receptor” value does the source give for “[13-36]NPY: NPY-related peptide competitor, NPY fragment 13-36” here?
**A.** The value was “PYY>NPY>[2-36]PYY>[3-36]NPY>[13-36]NPY>>(Leu31, Pro34)NPY>PP”.

**Q.** How did the “rank of potency for the Y7 receptor” value turn out when “[3-36]NPY: NPY-related peptide competitor, NPY fragment 3-36” was run?
**A.** The value was “PYY>NPY>[2-36]PYY>[3-36]NPY>[13-36]NPY>>(Leu31, Pro34)NPY>PP”.

**Q.** Neuropeptide Y [NPY] was tested. Which “rank of potency for the Y7 receptor” value did it give?
**A.** Its value is “PYY>NPY>[2-36]PYY>[3-36]NPY>[13-36]NPY>>(Leu31, Pro34)NPY>PP”.

**Q.** How did the “rank of potency for the Y7 receptor” value turn out when “(Leu31, Pro34)NPY: NPY-related peptide competitor, NPY analogue with Leu31 and Pro34” was run?
**A.** Its value is “PYY>NPY>[2-36]PYY>[3-36]NPY>[13-36]NPY>>(Leu31, Pro34)NPY>PP”.

**Q.** With “[2-36]PYY: NPY-related peptide competitor, PYY fragment 2-36” as the substance, how does the “rank of potency for the Y7 receptor” value read?
**A.** Its value is “PYY>NPY>[2-36]PYY>[3-36]NPY>[13-36]NPY>>(Leu31, Pro34)NPY>PP”.
